Source: patent publication EP0314038A1, “Pyrrolidines” (Byk Gulden Lomberg Chemische Fabrik GmbH, priority 1987, dated 1989)
Where a name gives a salt, the structure may show the parent alone.

System: spontan hypertonen Ratte
Experiment: antihypertensive effect (systolic blood pressure, tail cuff) in spontaneously hypertensive rats after oral administration
Assay type: in vivo
Conditions: genetically hypertensive rats (SHR/N/Ibm/Bm), N=6; for BP (% Änderung vs. Kontrolle), Mittelwert für Meßzeitpunkte: Stunden nach Gabe (Tage) 2h (1.+4.Tag): 2h after dosing, mean of days 1+4; for BP (% Änderung vs. Kontrolle), Mittelwert für Meßzeitpunkte: Stunden nach Gabe (Tage) 6h (1.-4.Tag): 6h after dosing, mean of days 1-4
Excerpt: Die antihypertensive Wirksamkeit der erfindungsgemäßen Verbindungen kann am Modell der spontan hypertonen Ratte nachgewiesen werden.
Zur Bestimmung der antihypertensiven Wirkung werden die unten aufgeführten Verbindungen in den angegebenen Dosen an vier aufeinander folgenden Tagen an je 6 männlichen Ratten (Stamm SHR/N/Ibm/Bm, 250-350 g) mit genetisch bedingtem Hochdruck (systolischer Blutdruck > 180 mmHg) täglich einmal mittels Schlundsonde verabfolgt. Die Messung des Blutdrucks erfolgt jeweils 6 und gegebenenfalls 2 oder 24 Stunden nach Substanzgabe.
Die Blutdruckmessung wird in einer Wärmekammer bei 36°C vorgenommen, um eine bessere Durchblutung der Schwanzarterie zu erreichen. Hierzu werden die Tiere in perforierte Lochblechkäfige verbracht und 20 - 40 Min. nach Beginn der Aufwärmung gemessen. Zur Messung des systolischen arteriellen Drucks wird eine ringförmige Manschette mit aufblasbarer Gummimembran zur Unterbindung der Durchblutung und ein ringförmiger Piezokristallaufnehmer zur Erfassung der Pulswellen auf den Schwanz aufgeschoben. Nach erfolgter Unterbindung des Blutstroms in der Schwanzarterie wird der Manschettendruck kontinuierlich reduziert. Die Wiederkehr der Pulswellen bei Druckablassen wird automatisch als systolischer Blutdruck erkannt und ausgedruckt (Bühler, R. et al.,: Microprocessor-based automation of blood pressure measurement in the conscious rat. Proceedings of the 4th international symposium on rats with spontaneous hypertension and related studies, Rascher, R. et al. (Eds.), Schattauer Verlag, Stuttgart, New York, 1982, S. 410-413). Pulssignale und Druckverlauf werden zur Auswertung graphisch aufgezeichnet.
Zur Gewöhnung an den Meßvorgang werden die Tiere vor Substanzprüfung 14 Tage trainiert. In der zweiten Trainingswoche werden Blutdruck-Vorwerte erhoben. Tiergruppen, die Substanz erhalten, werden gegen eine Kontrollgruppe geprüft.
In der anscließenden Tabelle werden die untersuchten Verbindungen durch laufende Nummern gekennzeichnet, die mit den jeweiligen Beispielnummern übereinstimmen.
Tabelle I gibt für die Vertreter der erfindungsgemäßen Verbindungen die prozentuale Senkung des Blutdrucks (BP) nach oraler Verabreichung bei der Ratte wieder. Tabelle I

[1] = 25 µmol/kg p.o. once daily on four consecutive days
[2] = 10 µmol/kg p.o. once daily on four consecutive days

CCOC(=O)C1=C(C)NC(C)=C(C(=O)OCCCN2CCCC2Cc2ccc(Cl)cc2)C1c1cccc([N+](=O)[O-])c1 (racemic) [Beispiel 1, 1,4-Dihydro-2,6-dimethyl-4-(±)-(3-nitrophenyl)-pyridin-3,5-dicarbonsäure-3-ethyl-5-{3-[2-(±)-(4-chlorbenzyl)-pyrrolidinyl-1]-propyl}-ester-hydrochlorid]
BP (% Änderung vs. Kontrolle), Mittelwert für Meßzeitpunkte: Stunden nach Gabe (Tage) 2h (1.+4.Tag) [1]: -55,5% | BP (% Änderung vs. Kontrolle), Mittelwert für Meßzeitpunkte: Stunden nach Gabe (Tage) 6h (1.-4.Tag) [1]: -43,5%

COC(=O)C1=C(C)NC(C)=C(C(=O)OCCCN2CCCC2Cc2ccc(Cl)cc2)C1c1cccc([N+](=O)[O-])c1 (racemic) [Beispiel 2, 1,4-Dihydro-2,6-dimethyl-4-(±)-(3-nitrophenyl)-pyridin-3,5-dicarbonsäure-3-methyl-5-{3-[2-(-)-(4-chlorbenzyl)-pyrrolidinyl-1]-propyl}-ester-hydrochlorid]
BP (% Änderung vs. Kontrolle), Mittelwert für Meßzeitpunkte: Stunden nach Gabe (Tage) 2h (1.+4.Tag) [1]: -47% | BP (% Änderung vs. Kontrolle), Mittelwert für Meßzeitpunkte: Stunden nach Gabe (Tage) 6h (1.-4.Tag) [1]: -34% | BP (% Änderung vs. Kontrolle), Mittelwert für Meßzeitpunkte: Stunden nach Gabe (Tage) 24h (1.+3.Tag) (25 µmol/kg p.o. once daily on four consecutive days, 24h after dosing, mean of days 1+3): -13,5%

COC(=O)C1=C(C)NC(C)=C(C(=O)OCCCN2CCCC2Cc2ccc(Cl)cc2)C1c1cccc(Cl)c1Cl (racemic) [Beispiel 8, 1,4-Dihydro-2,6-dimethyl-4-(±)-(2,3-dichlorphenyl)-pyridin-3,5-dicarbonsäure-3-methyl-5-{3-[2-(-)-(4-chlorbenzyl)-pyrrolidinyl-1]-propyl}-ester-hydrochlorid]
BP (% Änderung vs. Kontrolle), Mittelwert für Meßzeitpunkte: Stunden nach Gabe (Tage) 2h (1.+4.Tag) [2]: -39% | BP (% Änderung vs. Kontrolle), Mittelwert für Meßzeitpunkte: Stunden nach Gabe (Tage) 6h (1.-4.Tag) [2]: -25,5%

COC(=O)C1=C(C)NC(C)=C(C(=O)OCCCN2CCCC2Cc2ccc([N+](=O)[O-])cc2)C1c1cccc([N+](=O)[O-])c1 (racemic) [Beispiel 11, 1,4-Dihydro-2,6-dimethyl-4-(+)-(3-nitrophenyl)-pyridin-3,5-dicarbonsäure-3-methyl-5-{3-[2-(±)-(4-nitrobenzyl)-pyrrolidinyl-1]-propyl}-ester-hydrochlorid]
BP (% Änderung vs. Kontrolle), Mittelwert für Meßzeitpunkte: Stunden nach Gabe (Tage) 2h (1.+4.Tag) [1]: -36,5% | BP (% Änderung vs. Kontrolle), Mittelwert für Meßzeitpunkte: Stunden nach Gabe (Tage) 6h (1.-4.Tag) [1]: -25,5%

COC(=O)C1=C(C)NC(C)=C(C(=O)OCCCN2CCCC2Cc2ccc(Cl)cc2)C1c1cccc([N+](=O)[O-])c1 (single isomer, unassigned) [Beispiel 4, 1,4-Dihydro-2,6-dimethyl-4-(+)-(3-nitrophenyl)-pyridin-3,5-dicarbonsäure-3-methyl-5-{3-[2-(-)-(4-chlorbenzyl)-pyrrolidinyl-1]-propyl}-ester-hydrochlorid]
BP (% Änderung vs. Kontrolle), Mittelwert für Meßzeitpunkte: Stunden nach Gabe (Tage) 2h (1.+4.Tag) [2]: -48% | BP (% Änderung vs. Kontrolle), Mittelwert für Meßzeitpunkte: Stunden nach Gabe (Tage) 6h (1.-4.Tag) [2]: -33%
